In US9630947B2, “Therapeutic compounds and related methods of use” (OTSUKA PHARMACEUTICAL CO., LTD., priority 2009, dated 2017):

biological target: T1, purified STEP46 enzyme (Homo sapiens, UniProt P54829); test: STEP46 biochemical assay (DiFMUP fluorescence phosphatase assay); settings: DiFMUP 10 μM, read-out: STEP IC50
T1 sequence (P54829 1-565): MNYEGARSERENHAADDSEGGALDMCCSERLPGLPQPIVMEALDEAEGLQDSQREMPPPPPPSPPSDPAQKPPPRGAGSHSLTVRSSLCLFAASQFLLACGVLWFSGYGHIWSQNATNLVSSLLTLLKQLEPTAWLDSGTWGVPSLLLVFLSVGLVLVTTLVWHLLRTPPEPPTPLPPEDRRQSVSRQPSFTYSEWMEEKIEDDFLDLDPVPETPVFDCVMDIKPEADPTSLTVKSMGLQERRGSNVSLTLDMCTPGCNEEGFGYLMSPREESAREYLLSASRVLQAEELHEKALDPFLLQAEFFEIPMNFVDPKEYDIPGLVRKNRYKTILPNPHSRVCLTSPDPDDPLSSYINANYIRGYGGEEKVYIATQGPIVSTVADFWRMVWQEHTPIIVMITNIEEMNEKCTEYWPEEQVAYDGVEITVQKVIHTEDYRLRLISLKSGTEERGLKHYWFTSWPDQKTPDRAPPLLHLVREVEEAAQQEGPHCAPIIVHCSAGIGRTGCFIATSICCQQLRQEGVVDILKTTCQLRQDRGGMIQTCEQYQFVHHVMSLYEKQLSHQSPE
Method: STEP46 Biochemical Assays
Serial dilutions of compounds were performed in 100% DMSO and 1 uL of compounds were dispensed into 384-well black polystyrene plates (Corning, NY). Compounds were incubated with 24 uL of buffer containing 50 mM Hepes, 1 mM DTT, 0.02% Brij35, 1 ng/well purified STEP46 enzyme for 30 min at room temperature. The reaction was initiated by addition of 25 uL of DiFMUP (6, 8-difluoro-4-methylumbelliferyl phosphate) (InVitrogen, CA) with a final concentration of 10 μM and incubated at 27° C. for 90 min. Final DMSO concentration is 2%. Plates were read with florescence intensity at excitation/emission of 360/460 nm using a PheraStar plate reader (BMG Labtech, NC).
Data were expressed as percentage (%) inhibition of enzyme activity. 0% inhibition is defined as the RFUs (relative fluorescence units) in the absence of compounds and 100% inhibition is defined as RFUs in the absence of STEP46 enzyme. IC50 values of compounds with inhibitory activity against STEP46 were determined by GraphPad Prism (version 4.03) using four parameter logistic equation. Some compounds act as activators. For compounds showing STEP46 enzymatic activation, data are represented as percentage of inhibition but with negative values at three representative concentrations (25, 50 and 100 uM).

SMILES | IC50 [µM]
N#Cc1cccc(Nc2nc(-c3ccnnc3)nc3cc(Cl)ccc23)c1 [Compound 1203] | 1 to 10
COc1ccc2nc(-c3cccnc3)nc(Nc3cccc4c3OC(F)(F)O4)c2c1 [Compound 339] | 1 to 10
CNc1nc(-c2cccnc2)nc2cc(-c3cccc(Cl)c3)ccc12 [Compound 1353] | 1 to 10
FC(F)Oc1cccc(Nc2nc(-c3ccnnc3)nc3ccccc23)c1 [Compound 1183] | 1 to 10
CNc1nc(-c2cncnc2)nc2ccc(-c3cccc(F)c3F)cc12 [Compound 1239] | 1 to 10
CNc1nc(-c2cccnc2)nc2ccc(-c3cc(OC)ccc3OC)cc12 [Compound 1356] | 1 to 10
COCCN(C)c1nc(-c2cccnc2)nc2ccc(-c3cccc(F)c3F)cc12 [Compound 1391] | > 10
CN(C)c1ccc(-c2ccc3c(Nc4ccc(F)c(Cl)c4)nc(-c4cccnc4)nc3c2)cc1 [Compound 694] | < 1
COc1ccc2nc(-c3cccnc3)nc(Nc3cccc4cc[nH]c34)c2c1 [Compound 300] | > 10
Cc1cccc(CNc2nc(-c3cccnc3)nc3ccc(-c4ccc(F)cc4F)cc23)n1 [Compound 1437] | 1 to 10
COc1ccc(-c2ccc3nc(-c4cccnc4)nc(Nc4ccc(F)c(Cl)c4)c3c2)c(OC)n1 [Compound 655] | < 1
COc1cccc(-c2ccc3nc(-c4cccnc4)nc(Oc4ccc(F)c(F)c4)c3c2)c1 [Compound 392] | 1 to 10
CNc1nc(-c2cccnc2)nc2cc(-c3ccc(C(C)=O)cc3)ccc12 [Compound 1351] | 1 to 10
CN(C)c1nc(-c2cccnc2)nc2ccc(-c3cccc(F)c3F)cc12 [Compound 1380] | 1 to 10
CNc1nc(-c2cccnc2)nc2cc(-c3cc(F)cc(F)c3)ccc12 [Compound 1374] | 1 to 10
CNc1c(-c2cc(F)cc(F)c2)ccc2nc(-c3cccnc3)nc(C)c12 [Compound 1422] | 1 to 10
COc1ccc2nc(-c3cccnc3)nc(Nc3cccc4c3OC(F)(F)C(F)(F)O4)c2c1 [Compound 342] | 1 to 10

SMILES | IC50 [µM]
COc1ccc2nc(-c3cccnc3)nc(Nc3nc(-c4cccc(C)c4)cs3)c2c1 [Compound 440] | 1 to 10
CNc1nc(-c2cccnc2)nc2ccc(-c3cccc(OC)c3)cc12 [Compound 1248] | 1 to 10
CNc1nc(-c2cccnc2)nc2cc(-c3cccc(C#N)c3)ccc12 [Compound 1364] | 1 to 10
COc1ccc2nc(-c3cccnc3)nc(Oc3ccccc3)c2c1 [Compound 348] | 1 to 10
FC(F)(F)Oc1cccc(Nc2nc(-c3ccnnc3)nc3ccccc23)c1 [Compound 1182] | 1 to 10
CNc1nc(-c2ccnnc2)nc2ccc(-c3cccc(F)c3F)cc12 [Compound 1237] | 1 to 10
Clc1ccc2nc(-c3cnccn3)nc(Nc3ccc(Cl)c(Cl)c3)c2c1 [Compound 1160] | 1 to 10
Fc1ccc(Nc2nc(-c3cnccn3)nc3ccccc23)cc1F [Compound 1220] | > 10
NC(=O)c1ccc(-c2ccc3c(Nc4ccc(F)c(Cl)c4)nc(-c4cccnc4)nc3c2)cc1 [Compound 684] | 1 to 10
FC(F)Oc1cccc(Nc2nc(-c3ccncn3)nc3ccccc23)c1 [Compound 1208] | > 10
COc1cc(OC)cc(-c2ccc3nc(-c4cccnc4)nc(Nc4ccc(F)c(Cl)c4)c3c2)c1 [Compound 642] | < 1
COc1ccc2nc(-c3cccnc3)nc(Nc3ccc(-c4ccc(Cl)cc4)cc3)c2c1 [Compound 424] | 1 to 10
CNc1nc(-c2cccnc2)nc2c(C)cc(-c3cccc(C#N)c3)cc12 [Compound 1281] | < 1
COc1ncc(-c2ccc3nc(-c4cccnc4)nc(Nc4ccc(F)c(Cl)c4)c3c2)c(OC)n1 [Compound 653] | < 1
N#Cc1cccc(-c2ccc3nc(-c4cccnc4)nc(Nc4ccc(F)c(Cl)c4)c3c2)c1 [Compound 633] | 1 to 10
Fc1ccc(Nc2nc(-c3cccnc3)nc3ccc(-c4ccoc4)cc23)cc1Cl [Compound 647] | 1 to 10
Fc1ccc(Nc2nc(-c3cccnc3)nc3ccc(-c4cccs4)cc23)cc1Cl [Compound 649] | 1 to 10
